Measurements: PMC8708491 (Vaccines, 2021)
Where no end group is shown, it is not given here.

How the values were obtained:
[1] = Polarity by reversed-phase HPLC retention; format: physicochemical; details: chromatographic, RP-18 (C18) column, gradient 5–100% AcN in 30 min, 0.08% TFA, 214 nm
Experimental: Figure 8 HPLC analysis of peptide (KG)5-MOG35–55 (214 nm) and oxidized mannan–(KG)5-MOG35–55. HPLC analysis of (A) (KG)5-MOG35–55 and (B) oxidized mannan–(KG)5-MOG35–55 solution after 3 years (214 nm) showing the stability of the conjugate. […] The oxidized mannan–(KG)5-MOG35–55 conjugate was very polar, and it appeared at an earlier retention time compared to the less polar (KG)5-MOG35–55 peptide. The HPLC method used: gradient 5–100% AcN in 30 min.

endo-proteinase Glu-C V8 = endo-proteinase Glu-C V8 (Staphylococcus aureus, UniProt P0C1U8); details: 100 mM Tris-HCl pH 7.8 (carbonate buffer in Figure 6); 0.5 mg/mL; read-out HPLC (fragment MOG37–55 at 13.55 min), MS and UPLC-MS/MS
Sequence of endo-proteinase Glu-C V8 (P0C1U8 69-336): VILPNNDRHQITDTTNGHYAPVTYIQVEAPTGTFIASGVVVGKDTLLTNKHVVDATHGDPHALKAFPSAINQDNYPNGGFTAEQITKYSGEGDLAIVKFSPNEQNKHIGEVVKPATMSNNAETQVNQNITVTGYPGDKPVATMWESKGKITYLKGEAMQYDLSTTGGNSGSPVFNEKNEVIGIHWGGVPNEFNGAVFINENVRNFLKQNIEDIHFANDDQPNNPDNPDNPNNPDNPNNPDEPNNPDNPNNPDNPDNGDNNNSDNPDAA
Experimental: This cleavage experiment aimed to identify fragment MOG37–55 by HPLC analysis. […] In particular, endo-proteinase Glu-C V8, a proteolytic serine, sequencing grade from Staphylococcus aureus V8, (Roche, lot no. 32228800) was used. This enzyme acts at the carboxylic acid of the Glu amino acid. […] The same experiment of enzymatic hydrolysis with a glutamate enzyme was also carried out with oxidized mannan–(KG)5-MOG35–55 conjugate.

[2] = tested on: endo-proteinase Glu-C V8, sequencing grade from Staphylococcus aureus V8; test: endo-proteinase Glu-C V8 in 100 mM Tris-HCL, pH 7.8
[3] = tested on: patients with secondary progressive MS; details: cited from earlier work
Experimental: The study was performed for the first time using a peptide epitope on patients with secondary progressive MS (MAESTRO-01 study).

adenocarcinoma patients = details: cited from earlier work
Description: We have shown that mannan, a poly-mannose carbohydrate isolated from the cell wall of yeast when conjugated to cancer proteins, induces Th1 or Th2 immune responses depending on the mode of conjugation and has therapeutic benefits against cancer when conjugated to peptides, proteins, and DNA. […] In addition, mannan has the added advantage, as it stimulates dendritic cells via Toll-like receptor 4. In MS, mannan conjugated to linear o ...

CD4 T cells = details: cited from earlier work
Description: The induction of immunological tolerance through the action of dendritic cells is a newly introduced strategy for the treatment of MS. Peripheral blood mononuclear cells (PBMCs) were isolated from patients with relapsing-remitting (RR-MS) and age- and sex-matched healthy individuals (controls).

[4] = tested on: experimental autoimmune encephalomyelitis (EAE); details: cited from earlier work
Description: Several biological studies, including in vitro and in vivo assays, have been carried out to evaluate the effects of mannan–myelin peptide conjugates. […] In another study, mannan–MOG35–55 reversed experimental autoimmune encephalomyelitis, inducing a pe ...

[5] = old lab batches kept at 5 ± 3 °C since 2014; HPLC (data not shown)
Experimental: We used a Waters 2695 HPLC (Alliance) system using a photodiode array detector. A Lichrosorb RP-18 reversed-phase analytical column (C18 […], 4.6 × 50 mm PIN 186003034). […] The reaction of oxidized mannan with a (KG)5-MOG35–55 peptide was monitored by HPLC. […] The samples were kept for 3 years and assessed by HPLC for stability.
The stability of the oxidized mannan–(KG)5-MOG35–55 conjugate was analyzed after 3 years of storage.

[6] = another study, wording is the title of ref 20
[7] = compared to EAE controls, 19 (wording matches ref 30)

For “(KG)5-MOG35–55: peptide MOG35–55 synthesized with (KG)5 at its N-terminus (MEVGWYRSPFSRVVHLYRNGK; N-terminal (KG)5 linker; UniProt Q61885 63-83, looked up, fragment)”, which “Polarity from HPLC retention time” value [1] is on record?
Its value is “less polar”.

And the “Cleavage by endo-proteinase Glu-C” value (endo-proteinase Glu-C V8)?
Its value is “cleavage of the peptide”.

Which cleaved bond [2] does the source give for KGKGKGKGKGMEVGWYRPPFSRVVHLYRNGK here?
The cleaved bond was “Glu36-Val37”.

Which results are given for “MBP82–98: myelin basic protein epitope peptide clinically tested in phases I, II and III (PADPGSRPHLIRLFSRD; dirucotide; UniProt P02686 82-98, looked up, fragment)”?
Safety in clinical trials ([3]; phases I, II and III): safe; Efficacy in clinical trial ([3]; secondary progressive MS, MAESTRO-01 study, trial suspended): lack of efficacy

For “mannan conjugated to MUC1 protein: mannan conjugated to MUC1 cancer protein, tested in humans”, which Clinical responses (adenocarcinoma patients; adenocarcinoma patients) is on record?
The Clinical responses was “clinical responses”.

And the Cancer recurrence (adenocarcinoma patients; in humans)?
Its Cancer recurrence is “protection against cancer recurrence”.

What about the Immune responses (adenocarcinoma patients; in humans) of the same substance?
The Immune responses was “induces immune responses”.

Which “Activation levels of CD4 T cells” value (CD4 T cells; co-cultures with tolerogenic DCs presenting the conjugate, PBMCs from RR-MS patients and healthy controls) does the source give for “oxidized mannan–(KG)5-MOG35–55: MOG35–55 peptide conjugated to oxidized mannan via the (KG)5 linker at its N-terminus (KGKGKGKGKGMEVGWYRSPFSRVVHLYRNGK; also: conjugated to oxidized mannan via Schiff base on linker lysine side chains; UniProt Q61885 63-83, looked up, fragment)” here?
Its value is “Inhibition of activation”.

What about the T-cell tolerance (CD4 T cells; tolerogenic DCs loaded with the conjugate, generated in vitro) of the same substance?
Its T-cell tolerance is “induce T-cell tolerance”.

And the “Development of neurological symptoms and inflammatory demyelinating spinal cord lesions” value ([4]; EAE models, peptide conjugated to oxidized mannan via (KG)5, earlier study, no reference given)?
Its value is “inhibit”.

What about the “Axons in spinal cord lesions” value [4, 6] of the same substance?
Its value is “preserved”.

What about the CNS inflammation [4, 6] of the same substance?
The CNS inflammation was “reduced”.

And the “Effect on experimental autoimmune encephalomyelitis” value [4, 6]?
Its value is “reversed”.

What about the Peripheral myeloid response [4, 6] of the same substance?
The Peripheral myeloid response was “inducing a peripheral type 2 myeloid response”.

What about the “Antigen-specific T-cell proliferation” value [4, 7] of the same substance?
Its value is “reduced”.

And the “Th1, Th17, and regulatory T-cell differentiation or T-cell apoptosis” value [4, 7]?
The value was “no alterations”.

What about the “Protection in EAE” value ([4]; therapeutic and prophylactic models, 19 (no reference at the sentence; wording matches ref 30)) of the same substance?
Its value is “showed protection”.

What about the “Polarity from HPLC retention time” value [1] of the same substance?
Its value is “very polar”.

And the “Cleavage by endo-proteinase Glu-C” value (endo-proteinase Glu-C V8)?
Its value is “cleavage of peptide sequence between amino acids Glu(36) and Val(37)”.

What about the “Stability of the conjugate: fragmentation or detachment” value [5] of the same substance?
Its value is “did not show any signs of fragmentation or detachment”.
